This passage reports IC50 results from PubChem BioAssay AID488890 (Southern Research Specialized Biocontainment Screening …, 2010).

Records with an inconclusive call do not appear. The source made the active and inactive calls. How the calls were made is not given here.

The test system of this experiment is Mycobacterium tuberculosis non-replicating, growth inhibition. The experiment in a line: growth inhibition of non-replicating M. tuberculosis (AID 488890).
As usually defined, the IC50 is the midpoint of a concentration-inhibition curve. With `Cn1c(SCCOc2cccc(Cl)c2)nnc1-c1ccncc1`, the IC50 is 11.4 µM (inactive). On to `O=C(Nc1nnc(-c2ccc(Cl)cc2)o1)C1=COCCO1`, for which the IC50 is 14 µM (inactive).

`O=C1/C(=C/C=C/c2ccccc2)Oc2c1ccc(O)c2CN1CCN(CCO)CC1`: the IC50 was 36.8 µM (inactive). The value for `N=c1n(CCN2CCCCC2)c2ccccc2n1CC(=O)c1ccc(Cl)c(Cl)c1` was 21.5 µM (inactive); that for `CC(C)(C)c1ccc(S(=O)(=O)NNC(=O)c2cc3ccccc3[nH]2)cc1` was > 25 µM (inactive); that for `Cc1ccc(NC(=O)C2=C(c3ccccc3)S(=O)(=O)CCS2(=O)=O)cc1` was 2.05 µM.

`Cc1ccc(-n2cc(CNCCc3ncc(C)[nH]3)c(-c3ccc(F)cc3)n2)cc1`: the IC50 is 17.3 µM (inactive). Turning to `O=C(Nc1ccc(Cc2ccncc2)cc1)c1ccc([N+](=O)[O-])o1`, the IC50 was 1.74 µM. As for `Cc1ccc(CNC(=O)c2ccc([N+](=O)[O-])o2)cc1`, the figure is 0.46 µM; as for `COc1ccc(/C=C2\COc3ccccc3C2=O)cc1OC`, 12.5 µM (inactive).

As for `C/C(=N\Nc1cccc2cccnc12)c1ccccn1`, the IC50 is 32.7 µM (inactive).

For `CN(Cc1ccccc1)C(=O)c1ccc([N+](=O)[O-])o1`, the IC50 is 3.29 µM. The value for `Cc1c(Cl)cccc1NC(=O)C1COc2ccccc2O1` (centres undefined) was 12.1 µM (inactive). As for `COC(=O)N/N=C/c1ccc([N+](=O)[O-])s1`, the figure is 17 µM (inactive); as for `Cc1ccc(C(=O)n2c(N)nc3ccccc32)cc1`, 16.6 µM (inactive). For the compound `O=C(N/N=C/c1cccc2nccnc12)c1ccncc1`, the IC50 is 1.13 µM. As for `COc1cc(/C=N/Nc2cccc3cccnc23)cc(OC)c1O`, the figure is 15.2 µM (inactive); as for `O=C(c1ccccc1[N+](=O)[O-])N1N=C(c2ccccc2)CC1(O)C(F)(F)F` (centres undefined), 3.92 µM; as for `COc1cc(OC)cc(-c2nc3ccccc3c(=O)o2)c1`, 2.33 µM.

For `O=C(NC(=S)Nn1cnc2c(cnn2-c2ccccc2)c1=O)c1ccccc1`, the IC50 is 22.2 µM (inactive). The value for `CC(C)Cc1cc(C(=O)Nc2ccc(F)cc2F)no1` was 2.34 µM. As for `O=C(CCS(=O)(=O)c1ccc(Cl)cc1)Oc1ccc2c(c1)OCO2`, the figure is 22.7 µM (inactive); as for `O=[N+]([O-])c1ccc(S(=O)(=O)c2cccc(C(F)(F)F)c2)nc1`, less than 0.1 µM. As for `O=C(Nc1nnc(-c2ccccc2Cl)o1)c1ccc(S(=O)(=O)N2CCCCCC2)cc1`, the figure is 8.7 µM; as for `FC(F)(Cl)c1nnc2ccc(Cl)nn12`, 1.38 µM; as for `CN(C(=O)COC(=O)c1ccc([N+](=O)[O-])cc1Cl)C1CCCCC1`, 5.88 µM. On to `O=C(NC1CCCC1)c1nc2c(nnn2Cc2cccc(Cl)c2)c(=O)[nH]1`, for which the IC50 is 19.8 µM (inactive). The value for `N=c1n(Cc2ccc(Cl)cc2)c2ccccc2n1CC(O)COc1ccccc1` (centres undefined) was 13.5 µM (inactive); that for `C/C(=N\NC(=O)c1ccco1)c1cc(Cl)sc1Cl` was 4.89 µM; that for `CCCc1cc(=O)n2[nH]c(C)c(-c3ccccc3)c2n1` was 11.4 µM (inactive). The value for `N#CC1=C(c2ccccc2)/C(=C/c2ccccc2)OC1=O` was 2.82 µM; that for `Cc1ccc(NC(=O)ON=C2CCCC2)cc1` was 1.97 µM. Consider `COc1ccc(COc2cccc(C=O)c2)cc1`, for which the IC50 was 25.8 µM (inactive).

Take `Clc1cccc2c1Sc1ccccc1CC2N1CCNCC1` (centres undefined): the IC50 was 5.98 µM. As for `COc1ccc(C(=O)CCNc2ccc(F)cc2)cc1`, the figure is 5.22 µM; as for `Cc1cccc(CC(=O)NCC2CCCCC2)c1`, 16.7 µM (inactive). `CCOC(=O)COc1cc([N+](=O)[O-])cc2cccnc12`: the IC50 is 25.5 µM (inactive). The value for `Cc1nc(Cl)nc(N(C)c2ccccc2)c1[N+](=O)[O-]` was 9.3 µM; that for `O=C(Nc1ccc(N2CCN(C(=O)c3cccs3)CC2)cc1)c1ccc([N+](=O)[O-])o1` was 0.35 µM. With `CCCOc1ccc(N2C(=O)CC(N3CCCC(C(=O)N4CCCC4)C3)C2=O)cc1` (centres undefined), the IC50 is 30.1 µM (inactive). The value for `O=C(COc1ccc2ccccc2c1)Nc1nccs1` was 5.88 µM; that for `CCOc1ccc(CC(=O)N2N=C(C)CC2(O)C(F)(F)F)cc1` (centres undefined) was 13.3 µM (inactive); that for `CCc1ccc(N2CCN(CCNC(=O)Nc3ccc(OC)cc3)CC2)cc1` was 17.7 µM (inactive). As for `O=c1cc(-c2ccncc2)oc2c1ccc1ccccc12`, the figure is 22.3 µM (inactive); as for `Cc1ccc(C)c(-c2nnc(NC(=O)c3ccco3)o2)c1`, 0.66 µM. The value for `O=[N+]([O-])c1cc(Cl)cc(/C=N\Nc2ccccn2)c1O` was 1.18 µM; that for `COc1cccc(C(=O)Nc2nnc(-c3ccc(F)cc3)o2)c1` was 8.17 µM; that for `COC(=O)c1ccc(CO/N=C/c2ccc(OC)cc2)o1` was 6.95 µM. With `Cc1nc(C(=O)NNC(=O)c2ccc(Cl)cc2)c(C(F)(F)F)o1`, the IC50 is 13.9 µM (inactive). The value for `COc1ccc(OC(=O)C(C)N2C(=O)c3ccccc3C2=O)cc1` (centres undefined) was 12.3 µM (inactive); that for `Cc1cc2cc(CNC(=O)COc3ccccc3)ccc2n1C` was 26 µM (inactive); that for `O=[N+]([O-])c1ccc(/C=N/n2c(CO)nc3ccccc32)s1` was 1.18 µM. As for `O=C(OCC(=O)N1CCN(c2ccccc2)CC1)c1ccc2ccccc2n1`, the figure is 8.13 µM.

With `CC(=O)Nc1nc2ccccc2n1Cc1ccc(Cl)cc1`, the IC50 was 1.93 µM. For the compound `O=C1CC(N2CCSCC2)C(=O)N1CCc1ccccc1` (centres undefined), the IC50 is 19.1 µM (inactive). The value for `CC1(c2nnc(Cc3ccccc3)o2)CC(c2ccccc2[N+](=O)[O-])=NO1` (centres undefined) was 10.5 µM (inactive); that for `COc1ccc(S(=O)(=O)N(C(C)=O)c2ccc(OC(C)=O)c3ccccc23)cc1[N+](=O)[O-]` was 13.6 µM (inactive); that for `Cc1ccc(OC(=O)c2sc3ncn(C)c(=O)c3c2C)cc1` was 14.2 µM (inactive). As for `Cc1cc(=O)[nH]c(-n2nc(C)cc2C)n1`, the figure is 4.88 µM. The value for `NC1CCN(c2c(F)cc3c(=O)c(C(=O)O)cn(C4CC4)c3c2Cl)C1` (centres undefined) was 0.15 µM; that for `CC(NC(=O)c1cc2ccccc2oc1=O)c1ccccc1` (centres undefined) was 0.86 µM; that for `COc1ccc2c([N+](=O)[O-])c(N3CCCC3)[nH]c2c1` was 36 µM (inactive). For `CC1=C(/C=C/C(C)=N\NC(=O)c2ccncc2)C(C)(C)CCC1`, the IC50 is 1.15 µM. The value for `Cc1occc1C(=O)N/N=C/c1ccc[nH]1` was 11.9 µM (inactive). As for `CCCC(=O)OCCNc1cc(Sc2nccn2C)c2nonc2c1[N+](=O)[O-]`, the figure is 2.57 µM; as for `Clc1cccc(-c2ccc(CNCc3ccccn3)o2)c1`, 6.87 µM; as for `Cc1cccc(NC(=O)CCSc2nnc(Cc3ccccc3)o2)c1`, 4.09 µM. The value for `CCc1ccc(C(=O)NC2CCCCC2)s1` was 0.94 µM; that for `COc1ccc2c3c(cccc13)OCC2=O` was 25.9 µM (inactive); that for `O=C(N/N=C/c1ccc([N+](=O)[O-])o1)c1sc2ccccc2c1Cl` was 2.9 µM. As to `N#Cc1ccc(-c2ccc(OCC(=O)Nc3cccnc3)cc2)cc1`, the IC50 was 1.43 µM. As for `N=C1/C(=C/c2ccc(OC(=O)c3ccco3)cc2)C(=O)N=C2SC=CN12`, the figure is 5.02 µM; as for `CCN(CC)c1ccc2cc(C(=O)NCc3ccc(F)cc3)c(=N)oc2c1`, 1.62 µM; as for `O=C(Nc1nnc(C2=COCCO2)o1)c1cccc(C(F)(F)F)c1`, 17.7 µM (inactive).

For `CCOC(=O)c1c(NC(=O)C2COc3ccccc3O2)sc2c1CC(C)(C)NC2(C)C` (centres undefined), the IC50 was 18.3 µM (inactive). As for `CCOc1ccc(/C=N/OCC(=O)Nc2ccc3c(c2)OCO3)cc1`, the figure is 5.11 µM; as for `Cc1cc(NC(=O)COc2ccccc2)ccc1Cl`, 5.43 µM; as for `C#CCSc1nnc(-c2ccc([N+](=O)[O-])cc2)o1`, less than 0.1 µM. The value for `C/C(=N\Nc1nc2ccccc2[nH]1)c1cc2ccccc2o1` was 8.88 µM; that for `Cc1ccc(-c2cc(C(F)(F)F)n3nc(C(=O)NCCCn4ccnc4)cc3n2)cc1C` was 14.1 µM (inactive); that for `CCCn1c(O)c(N=NC(=O)c2ccco2)c2ccccc21` was 14.2 µM (inactive). Consider `O=[N+]([O-])c1cccnc1N/N=C/c1ccccc1O`, for which the IC50 was 2.87 µM.

`O=C(Nc1nnc(-c2ccccn2)o1)c1cccc(Cl)c1`: the IC50 was 11.4 µM (inactive). As for `CC(C)=CCN1CCN(CCC2=C(C)CCCC2(C)C)CC1CCO` (centres undefined), the figure is 7.56 µM; as for `C=C[C@]1(C)C=C2CCC3[C@](C)(CCC[C@@]3(C)C(=O)O)C2CC1` (some centres undefined), 6.33 µM; as for `Cc1nc([N+](=O)[O-])c(Br)n1CC(=O)c1ccccc1`, 25.5 µM (inactive). As to `O=C(COc1ccc(Br)cc1)N/N=C1/SCC(=O)N1Cc1ccccc1`, the IC50 was 13 µM (inactive).

In the case of `Cc1noc(C)c1COc1ccc(C(=O)Nc2ccccn2)cc1`, the IC50 is 24.6 µM (inactive).

In the case of `NCCOc1ccc(C23CC4CC(CC(C4)C2)C3)cc1`, the IC50 is 16 µM (inactive). For the compound `CCOCCOC(=O)c1ccc(NC(=O)C2COc3ccccc3O2)cc1` (centres undefined), the IC50 was 4.16 µM. As for `CCOc1ccc(NC(=O)Cn2sc3nc(C)cc(C)c3c2=O)cc1`, the figure is 5.5 µM; as for `CCOc1ccc(OCC(=O)Nc2ccc(OC)cc2)cc1`, 10.2 µM (inactive); as for `Nc1ncnc(Oc2cccc3cccnc23)c1[N+](=O)[O-]`, 4.36 µM. As for `N=c1oc2ccccc2cc1C(=O)NC1CCCCCC1`, the figure is 7.31 µM; as for `COC(=O)[C@H](CC(C)C)NC(=O)NCCC1=CCCCC1`, 12.8 µM (inactive); as for `COc1cc(CNCCc2ccccc2)cc(Cl)c1OCc1ccccc1`, 7.43 µM. As for `Cc1cc(NC(=O)c2sccc2C)n(-c2nc3ccccc3[nH]2)n1`, the figure is 8.81 µM; as for `CC(C)(C)CC(=O)NC(=S)NCc1ccco1`, 4.56 µM; as for `O=C(N/N=C\C=C\c1ccco1)c1cncc(Br)c1`, 34.4 µM (inactive).
